According to ChEMBL document CHEMBL1123244, “Synthesis and aldose reductase inhibitory activity of substituted 2-oxoquinoline-1-acetic acid derivatives” (J Med Chem, 1986):
The source made the active and inactive calls. No cut-off for these calls is given here.

Columns and labels:
[1] = target: Aldo-keto reductase family 1 member B1 (Rattus norvegicus, UniProt P07943); test: Inhibition of crude aldose reductase of rat lens
[2] = target: Aldo-keto reductase family 1 member B1 (Rattus norvegicus) (UniProt P07943); test: Compound was tested for inhibition of crude aldose reductase obtained from rat lens, at the concentration of 100 uM; Inactive
[3] = target: Aldo-keto reductase family 1 member B1 (Rattus norvegicus) (UniProt P07943); test: Compound was tested for inhibition of crude aldose reductase obtained from rat lens, at the concentration of 100 uM
[4] = target: Aldo-keto reductase family 1 member B1 (Rattus norvegicus) (UniProt P07943); test: Compound was tested for 50% inhibition of crude aldose reductase obtained from rat lens

## CC(C(=O)O)n1c(=O)ccc2cccc(O)c21 (stereo unspecified)
[1]
  IC50: 33 µM

## Cc1cc(=O)n(CCC(=O)O)c2ccccc12
[1]
  IC50: 110 µM

## O=C(O)Cn1c(=O)ccc2cc(O)ccc21
[1]
  IC50: 2.4 µM

## CCOC(=O)Cn1c(=O)cc(C)c2ccccc21
[2]
  inhibition: inactive

## Cc1cc(=O)n(CC(=O)O)c2ccccc12
[1]
  IC50: 6 µM

## COc1ccc2nc(O)ccc2c1
[3]
  inhibition: 25.8%

## Cc1cc(=O)n(C(C)C(=O)O)c2ccccc12 (stereo unspecified)
[1]
  IC50: 470 µM

## O=C(O)CN1C(=O)c2cccc3cccc(c23)C1=O [ALRESTATIN]
[1]
  IC50: 1.5 µM

## COc1ccc2c(ccc(=O)n2C(C)C(=O)O)c1 (stereo unspecified)
[1]
  IC50: 590 µM

## O=C(O)Cn1ccccc1=O
[4]
  inhibition: 33%

## CC(=O)Oc1cccc2ccc(O)nc12
[3]
  inhibition: 9.5%

## Cc1cc(=O)n(C)c2ccccc12
[3]
  inhibition: 42%

## Cc1cc(=O)n(CC(=O)O)c2ccc([N+](=O)[O-])cc12
[1]
  IC50: 0.45 µM

## Cc1cc(=O)[nH]c2ccccc12
[3]
  inhibition: 24%

## O=C(O)Cn1c(=O)ccc2cccc(O)c21
[1]
  IC50: 3.3 µM

## COc1ccc2c(ccc(=O)n2CC(=O)O)c1
[1]
  IC50: 0.91 µM
